# Test results from PMC11063128 (Journal of the American Chemical Society, 2023).
# T1: MMADHC (CblD) (Homo sapiens, UniProt Q9H3L0, C261S/C262S)
# T1 sequence (Q9H3L0 1-296 C261S/C262S): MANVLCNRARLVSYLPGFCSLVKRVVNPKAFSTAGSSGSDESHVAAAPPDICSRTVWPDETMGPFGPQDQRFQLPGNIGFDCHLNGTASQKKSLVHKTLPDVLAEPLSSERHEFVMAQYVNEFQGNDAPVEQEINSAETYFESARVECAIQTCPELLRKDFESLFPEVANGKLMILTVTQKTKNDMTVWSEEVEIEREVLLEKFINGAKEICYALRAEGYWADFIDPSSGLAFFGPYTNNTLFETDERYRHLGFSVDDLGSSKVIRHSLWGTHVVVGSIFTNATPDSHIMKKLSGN
# T2: C262S ^ΔNMMADHC–S–Cob(III) (human, UniProt Q9H3L0 116-296, C262S, thiolato-cob(III)alamin (cobalamin coordinated through a cysteine sulfur, -S-Cob(III)))
# T2 sequence (looked up): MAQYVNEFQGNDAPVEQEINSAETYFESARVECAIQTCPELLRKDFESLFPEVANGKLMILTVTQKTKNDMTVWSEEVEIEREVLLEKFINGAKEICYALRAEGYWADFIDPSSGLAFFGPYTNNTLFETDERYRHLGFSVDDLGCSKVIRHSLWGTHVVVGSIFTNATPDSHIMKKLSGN
# Experiments:
# MMADHC (CblD) = target: T1, MMADHC (CblD); experiment: UV-visible titration; format: binding
# [1] = target: T2, C262S ^ΔNMMADHC–S–Cob(III); experiment: UV-visible absorbance titration
Kd (MMADHC (CblD)),stoichiometry N [1],Molecule
8.4 ± 1.9 µM,–,H2OCbl
–,1,"^ΔNMTR, C-terminal half of human methionine synthase (cap, B12 and AdoMet domains, residues 661–1265) (domain or fragment, UniProt Q99707 661-1265, looked up) IQTDEWRNGPVEERLEYALVKGIEKHIIEDTEEARLNQKKYPRPLNIIEGPLMNGMKIVGDLFGAGKMFLPQVIKSARVMKKAVGHLIPFMEKEREETRVLNGTVEEEDPYQGTIVLATVKGDVHDIGKNIVGVVLGCNNFRVIDLGVMTPCDKILKAALDHKADIIGLSGLITPSLDEMIFVAKEMERLAIRIPLLIGGATTSKTHTAVKIAPRYSAPVIHVLDASKSVVVCSQLLDENLKDEYFEEIMEEYEDIRQDHYESLKERRYLPLSQARKSGFQMDWLSEPHPVKPTFIGTQVFEDYDLQKLVDYIDWKPFFDVWQLRGKYPNRGFPKIFNDKTVGGEARKVYDDAHNMLNTLISQKKLRARGVVGFWPAQSIQDDIHLYAEAAVPQAAEPIATFYGLRQQAEKDSASTEPYYCLSDFIAPLHSGIRDYLGLFAVACFGVEELSKAYEDDGDDYSSIMVKALGDRLAEAFAEELHERVRRELWAYCGSEQLDVADLRRLRYKGIRPAPGYPSQPDHTEKLTMWRLADIEQSTGIRLTESLAMAPASAVSGLYFSNLKSKYFAVGKISKDQVEDYALRKNISVAEVEKWLGPILGYDTD"
